For orientation: half-life means the time in which the quantity being followed falls by half. A higher half-life goes with slow decline. Broadly, the bioavailability is the share of a dose that reaches the circulation, judged against a reference dose that is usually intravenous. Low values mean poor availability, high ones good availability. For orientation: Cmax means the highest concentration seen after dosing. What is called AUC is the area under the concentration-time curve, a measure of exposure. A higher AUC goes with more exposure. The Kp is the ratio of the level in a tissue or fluid to that in plasma or blood.

For one data set, the system named is Rattus norvegicus. Briefly: In vivo clearance in Sprague-Dawley rat.
Data set [1] in a line: Clearance in Sprague-Dawley rat at 1 mg/kg, iv administered as solution in DSMO and 5 mg/kg, po administered as suspension in 1% Tween 80 and 1% HPMC in water after 12 to 24 hrs by LC-MS analysis. It is filed as ADME, organism-based. The conditions noted are these: in vivo.
The nature of data set [2]: Volume of distribution at steady state in Sprague-Dawley rat at 1 mg/kg, iv administered as solution in DSMO and 5 mg/kg, po administered as suspension in 1% Tween 80 and 1% HPMC in water after 12 to 24 hrs by LC-MS analysis. Type of data set: ADME, organism-based. The conditions noted are these: in vivo, read-out: Vdss.
Data set [3] can be described thus: Half life in Sprague-Dawley rat at 1 mg/kg, iv administered as solution in DSMO and 5 mg/kg, po administered as suspension in 1% Tween 80 and 1% HPMC in water after 12 to 24 hrs by LC-MS analysis. The conditions noted are these: in vivo. It is filed as ADME, organism-based.
Data set [4] can be described thus: Oral bioavailability in Sprague-Dawley rat at 5 mg/kg administered as suspension in 1% Tween 80 and 1% HPMC in water after 12 to 24 hrs by LC-MS analysis. Type of data set: ADME, organism-based. The conditions noted are these: in vivo.
Data set [5] can be described thus: Clearance in CD1 mouse Calu6 tumor xenograft model at 1 mg/kg, iv administered as solution in DMSO and 5 mg/kg, po administered as suspension in 20% captisol in PBS. It is filed as ADME, organism-based. The conditions noted are these: in vivo.
The nature of data set [6]: Volume of distribution at steady state in CD1 mouse Calu6 tumor xenograft model at 1 mg/kg, iv administered as solution in DMSO and 5 mg/kg, po administered as suspension in 20% captisol in PBS. It is filed as ADME, organism-based. The conditions noted are these: in vivo, read-out: Vdss.
Data set [7] is described as follows: Half life in CD1 mouse Calu6 tumor xenograft model at 1 mg/kg, iv administered as solution in DMSO and 5 mg/kg, po administered as suspension in 20% captisol in PBS. Type of data set: ADME, organism-based. The conditions noted are these: in vivo.
A short description of data set [8]: Oral bioavailability in CD1 mouse Calu6 tumor xenograft model at 5 mg/kg administered as suspension in 20% captisol in PBS. It is filed as ADME, organism-based. The conditions noted are these: in vivo.
Data set [9] in a line: Cmax in CD1 mouse Calu6 tumor xenograft model at 30 mg/kg, po administered twice daily as suspension in 1% Tween 80 and 1% HPMC in water. Set-up: dose 30 mg/kg, route oral. The conditions noted are these: in vivo. It is filed as ADME, organism-based.
A short description of data set [10]: Cmax in CD1 mouse Calu6 tumor xenograft model at 100 mg/kg, po administered twice daily as suspension in 1% Tween 80 and 1% HPMC in water. It is filed as ADME, organism-based. Details: dose 100 mg/kg, route oral. The conditions noted are these: in vivo.
Data set [11] can be described thus: Cmax in tumor of CD1 mouse Calu6 tumor xenograft model at 30 mg/kg, po administered twice daily as suspension in 1% Tween 80 and 1% HPMC in water. Type of data set: ADME, organism-based, Neoplasm. Set-up: dose 30 mg/kg, route oral.
A short description of data set [12]: Cmax in tumor of CD1 mouse Calu6 tumor xenograft model at 100 mg/kg, po administered twice daily as suspension in 1% Tween 80 and 1% HPMC in water. Type of data set: ADME, organism-based, Neoplasm. Set-up: dose 100 mg/kg, route oral.
Data set [13] can be described thus: AUC in tumor of CD1 mouse Calu6 tumor xenograft model at 30 mg/kg, po administered twice daily as suspension in 1% Tween 80 and 1% HPMC in water. Details: dose 30 mg/kg, route oral. Type of data set: ADME, organism-based, Neoplasm.
Data set [14] is described as follows: AUC in tumor of CD1 mouse Calu6 tumor xenograft model at 100 mg/kg, po administered twice daily as suspension in 1% Tween 80 and 1% HPMC in water. Type of data set: ADME, organism-based, Neoplasm. Set-up: dose 100 mg/kg, route oral.
A short description of data set [15]: in vivo. The conditions noted are these: CD1, mouse, tumor and plasma, po, 30 mg/kg.
Data set [16] in a line: in vivo. The conditions noted are these: CD1, mouse, tumor and plasma, po, 100 mg/kg.
Data set [17] can be described thus: Clearance in Sprague-Dawley rat at 2 mg/kg, iv administered as solution in DSMO and 5 mg/kg, po administered as suspension in 1% Tween 80 and 1% HPMC in water after 12 to 24 hrs by LC-MS analysis. Type of data set: ADME, organism-based. The conditions noted are these: in vivo.
Data set [18] can be described thus: Volume of distribution at steady state in Sprague-Dawley rat at 2 mg/kg, iv administered as solution in DSMO and 5 mg/kg, po administered as suspension in 1% Tween 80 and 1% HPMC in water after 12 to 24 hrs by LC-MS analysis. The conditions noted are these: in vivo, read-out: Vdss. Type of data set: ADME, organism-based.
The nature of data set [19]: Half life in Sprague-Dawley rat at 2 mg/kg, iv administered as solution in DSMO and 5 mg/kg, po administered as suspension in 1% Tween 80 and 1% HPMC in water after 12 to 24 hrs by LC-MS analysis. It is filed as ADME, organism-based. The conditions noted are these: in vivo.
The nature of data set [20]: Clearance in CD1 mouse Calu6 tumor xenograft model at 12 mg/kg, iv administered as solution in aqueous propylene glycol and 30 mg/kg, po administered as suspension in 20% captisol in PBS of pH 5.73. It is filed as ADME, organism-based. The conditions noted are these: in vivo.
A short description of data set [21]: Volume of distribution at steady state in CD1 mouse Calu6 tumor xenograft model at 12 mg/kg, iv administered as solution in aqueous propylene glycol and 30 mg/kg, po administered as suspension in 20% captisol in PBS of pH 5.73. Type of data set: ADME, organism-based. The conditions noted are these: in vivo, read-out: Vdss.
Data set [22] is described as follows: Half life in CD1 mouse Calu6 tumor xenograft model at 12 mg/kg, iv administered as solution in aqueous propylene glycol and 30 mg/kg, po administered as suspension in 20% captisol in PBS of pH 5.73. It is filed as ADME, organism-based. The conditions noted are these: in vivo.
Data set [23] can be described thus: Cmax in CD1 mouse Calu6 tumor xenograft model at 30 mg/kg, po administered twice daily as suspension in 20% captisol in PBS of pH 3.5. It is filed as ADME, organism-based. Set-up: dose 30 mg/kg, route oral. The conditions noted are these: in vivo.
The nature of data set [24]: Cmax in CD1 mouse Calu6 tumor xenograft model at 100 mg/kg, po administered twice daily as suspension in 20% captisol in PBS of pH 3.5. It is filed as ADME, organism-based. Details: dose 100 mg/kg, route oral. The conditions noted are these: in vivo.
Data set [25] in a line: Cmax in tumor of CD1 mouse Calu6 tumor xenograft model at 30 mg/kg, po administered twice daily as suspension in 20% captisol in PBS of pH 3.5. Set-up: dose 30 mg/kg, route oral. Type of data set: ADME, organism-based, Neoplasm.
The nature of data set [26]: Cmax in tumor of CD1 mouse Calu6 tumor xenograft model at 100 mg/kg, po administered twice daily as suspension in 20% captisol in PBS of pH 3.5. Type of data set: ADME, organism-based, Neoplasm. Set-up: dose 100 mg/kg, route oral.
Data set [27] in a line: AUC in tumor of CD1 mouse Calu6 tumor xenograft model at 30 mg/kg, po administered twice daily as suspension in 20% captisol in PBS of pH 3.5. Type of data set: ADME, organism-based, Neoplasm. Details: dose 30 mg/kg, route oral.
A short description of data set [28]: AUC in tumor of CD1 mouse Calu6 tumor xenograft model at 100 mg/kg, po administered twice daily as suspension in 20% captisol in PBS of pH 3.5. Type of data set: ADME, organism-based, Neoplasm. Details: dose 100 mg/kg, route oral.
A short description of data set [29]: in vivo. The conditions noted are these: CD1, mouse, tumor and plasma, po, 30 mg/kg, pH 3.5.
The nature of data set [30]: in vivo. The conditions noted are these: CD1, mouse, tumor and plasma, po, 100 mg/kg, pH 3.5.

On to `COc1cc(Nc2nccc(Nc3cnc4ccccc4c3)n2)ccc1N1CCOCC1`, for which the CL in the data set with Rattus norvegicus is 2.9 L/h/kg.
Consider `COc1cc(Nc2nccc(Nc3cnc4ccccc4c3)n2)cc(OC)c1OC`, for which the clearance in [1] is 0.4 L/h/kg; in data set [5], 1.6 L/h/kg. Moreover, the figures for the Vd in data set [2] and in [6] were 0.2 L/kg and 0.3 L/kg, respectively. Moreover, the half-life in data set [3] and in data set [7] was 1.7 h throughout. Further, the bioavailability in data set [4] stood at 33%; in [8] it was 63%. Also, the Cmax came to 5.34 µM in data set [9], 13.4 µM in data set [10], 0.525 µM in data set [11] and 2.72 µM in data set [12]. Moreover, the AUC is 0.989 µg·h/mL in data set [13] and 5.17 µg·h/mL in data set [14]. For the same compound, the values for the Kp in “in vivo [15]” and in the data set “in vivo [16]” were 0.129 and 0.18, respectively.
For the compound `COc1cc(Nc2nccc(Nc3ccc4ccccc4c3)n2)cc(OC)c1OC`, the CL in the data set on Rattus norvegicus came out at 2.4 L/h/kg.
Still for that read-out and setting: next, `COc1cc(Nc2nccc(Nc3cc4ccccc4cn3)n2)cc(OC)c1OC`: 2.4 L/h/kg.
With `COc1cc(Nc2nccc(Nc3ccc4ncccc4c3)n2)cc(OC)c1OC`, the clearance is 1.2 L/h/kg in [1] and 6.4 L/h/kg in data set [5]. Besides, the Vd in data set [2] amounted to 1.1 L/kg; in data set [6], 1.8 L/kg. Besides, the half-life was 1.3 h in data set [3] and 2.3 h in data set [7]. Further, the bioavailability in [4] is 16%; in [8], 56%.
`COc1cc(Nc2nccc(Nc3ccc4[nH]ncc4c3)n2)cc(OC)c1OC`: in the data set on Rattus norvegicus, the CL is 2.4 L/h/kg.
As for `COc1cc(Nc2nccc(Nc3cnc4ccccc4c3)n2)cc(OC)c1`, in the data set with Rattus norvegicus, the CL is 2.9 L/h/kg.
On the same count and under the same terms, next, `COc1ccc(Nc2nccc(Nc3cnc4ccccc4c3)n2)cc1Cl`: 2.9 L/h/kg.
In the case of `c1ccc2ncc(Nc3ccnc(Nc4ccc(OCCCN5CCCCC5)cc4)n3)cc2c1`, the clearance was 0.6 L/h/kg in data set [17] and 5.9 L/h/kg in data set [20]. For the same compound, the Vd in [18] worked out at 9.5 L/kg; in data set [21], 28.1 L/kg. In addition, the half-life is 12.1 h in data set [19] and 5.3 h in [22]. For the same compound, in [4], the bioavailability was found to be 9%. In addition, the Cmax in data set [23] stood at 0.18 µM; in data set [24] it was 2.22 µM; in data set [25], 1.36 µM; in [26], 143 µM. The values for the AUC in data set [27] and in data set [28] were 13.3 µg·h/mL and 1120 µg·h/mL, respectively. Also, the Kp came out at 11.6 in the data set “in vivo [29]” and 81.9 in the data set “in vivo [30]”.
As to `COc1cc(Nc2nccc(Nc3cnc4ccccc4c3)n2)ccc1OCCCN1CCCCC1`, the CL in the data set on Rattus norvegicus amounted to 1.9 L/h/kg.

Values taken from ChEMBL document CHEMBL1759866, “Discovery of 2,4-bis-arylamino-1,3-pyrimidines as insulin-like growth factor-1 receptor (IGF-1R) inhibitors” (Bioorg Med Chem Lett, 2011).
